US20050255537A1, “Method for monitoring treatment with a parathyroid hormone” (priority 1999, published 2005)

Experiments:
[1] = test system: BSAP and PICP serum levels, NTX urine levels; test: Example 2 clinical trial of rhPTH(1-34) plus hormone replacement therapy vs HRT: bone markers; format: in vivo, human; conditions: 40 μg/day PTH plus HRT
Protocol: • Number of Subjects: • rhPTH(1-34) plus hormone replacement therapy (HRT) (estrogen±progesterone): 122 enrolled, 91 finished. • Control, hormone replacement therapy (estrogen±progesterone) without PTH: 125 enrolled, 105 finished. • Diagnosis and Inclusion Criteria: Women aged 62±8 years, postmenopausal for 15±8 years, selected for a baseline spine bone mineral density of 0.9±0.15 and a T value of −1.8. • Dosage and Administration: • Test Product (blinded) • rhPTH(1-34): 40 μg/day, given subcutaneously plus hormone replacement therapy (estrogen±progesterone). Subjects continued their prestudy hormone replacement therapy, maintained an HRT regimen consistent with local medical practices, took continuous/combined estrogen and progestin therapy using oral Premarin (0.625 mg/day) and oral Provera (2.5 mg/day) (intact uterus), or took estrogen therapy using oral Premarin (0.625 mg/day) (without intact uterus). • Reference (Control) Therapy (Blinded) • Hormone replacement therapy (estrogen±progesterone). Subjects continued their prestudy hormone replacement therapy, maintained an HRT regimen consistent with local medical practices, took continuous/combined estrogen and progestin therapy using oral Premarin (0.625 mg/day) and oral Provera (2.5 mg/day) (intact uterus), or took estrogen therapy using oral Premarin (0.625 mg/day) (without intact uterus). • Duration of Treatment: • rhPTH(1-34): up to 18 months • Control: up to 18 months • Criteria for Evaluation: Spine x-ray, serum biological makers (calcium, bone-specific alkaline phosphatase procollagen I carboxy-terminal propeptide); urine markers (calcium, N-telopeptide, fee deoxypyridinoline); 1,25-dihydroxyvitamin D; bone mineral density: spine, hip, wrist, and total body.
Measures of BSAP, PICP, and NTX levels were determined for each patient through the course of therapy generally according to methods described above in Example 1.

postmenopausal women = test: Pharmacokinetic/pharmacodynamic sigmoid Emax models (spine BMD, femoral neck BMD, PICP); format: in vivo, human
Excerpt: In order to explore the relationship between concentration and the effect on spine BMD, a pharmacokinetic/pharmacodynamic model was developed. This relationship was best described by a sigmoid Emax model with AUC50 estimated at 170 pg·hr/mL.
A pharmacokinetic/pharmacodynamic model was also developed for femoral neck BMD. The relationship was best described by a sigmoid Emax model with AUC50 estimated at 283 pg·hr/mL. […] Thus, the final pharmacodynamic model which included treatment group rather than systemic exposure, predicted the increase in hip BMD in a patient of average age (˜69 years), body weight (˜66 kg), and baseline NTX concentration (˜48 mmBCE/L) to be approximately 2.8% and 5.2% after 21 months of 20 μg/day and 40 μg/day therapy, respectively.
A pharmacokinetic/pharmacodynamic model was developed for the PICP response. […] Thus, LY333334 exposure was a less significant predictor of elevation in PICP concentrations than administered dose.

human subjects = test: Applicant's studies of daily dose of hPTH(1-34) in human subjects (bone markers, side effects); format: in vivo
Protocol: Therefore, treatment of osteoporosis in men or women with hPTH(1-34) preferably should use a daily dose greater than about 6 μg, more preferably at least about 15 μg. […] Therefore, any daily dose of hPTH(1-34) in the range of greater than about 6 μg to at least about 40 μg would be effective for reduction of the risk of both vertebral and nonvertebral fractures, according to the present method of using this form of parathyroid hormone.

[2] = test system: postmenopausal osteoporotic women; test: GHAC efficacy trial (intent to treat BMD, fractures); format: in vivo, human; conditions: 20 μg/day, 21 months
Protocol: • Number of Subjects: • rhPTH(1-34): 1093 enrolled, 848 finished. • Placebo: 544 enrolled, 447 finished. • Diagnosis and Inclusion Criteria: Women ages 30 to 85 years, postmenopausal for a minimum of 5 years, with a minimum of one moderate or two mild atraumatic vertebral fractures. • Dosage and Administration: • Test Product (blinded) • rhPTH(1-34): 20 μg/day, given subcutaneously • rhPTH(1-34): 40 μg/day, given subcutaneously • Reference Therapy (blinded) • Placebo study material for injection • Duration of Treatment: • rhPTH(1-34): 17-23 months (excluding 6-month run-in phase) • Placebo: 17-23 months (excluding 6-month run-in phase) • Criteria for Evaluation: Spine x-ray; serum biological markers (calcium, bone-specific alkaline phosphatase, procollagen I carboxy-terminal propeptide); urine markers (calcium, N-telopeptide, free deoxypyridinoline); 1,25-dihydroxyvitamin D; bone mineral density: spine, hip, wrist, and total body: height; population pharmacokinetics; bone biopsy (selected study sites).
Population pharmacodynamic analyses were undertaken to evaluate the time course of the relationships between efficacy measures and LY333334 dose or LY333334 concentrations. […] As a part of this assessment, a population placebo-response model describing the change in BMD in patients randomly assigned to placebo (supplemented with calcium and vitamin D) was first developed. […]

[3] = about 5-6 weeks following termination (18 months)

CC[C@H](C)[C@H](NC(=O)[C@H](CCC(=O)O)NC(=O)[C@H](CO)NC(=O)[C@@H](NC(=O)[C@@H](N)CO)C(C)C)C(=O)N[C@@H](CCC(N)=O)C(=O)N[C@@H](CC(C)C)C(=O)N[C@@H](CCSC)C(=O)N[C@@H](Cc1cnc[nH]1)C(=O)N[C@@H](CC(N)=O)C(=O)N[C@@H](CC(C)C)C(=O)NCC(=O)N[C@@H](CCCCN)C(=O)N[C@@H](Cc1cnc[nH]1)C(=O)N[C@@H](CC(C)C)C(=O)N[C@@H](CC(N)=O)C(=O)N[C@@H](CO)C(=O)N[C@@H](CCSC)C(=O)N[C@@H](CCC(=O)O)C(=O)N[C@@H](CCCN=C(N)N)C(=O)N[C@H](C(=O)N[C@@H](CCC(=O)O)C(=O)N[C@@H](Cc1c[nH]c2ccccc12)C(=O)N[C@@H](CC(C)C)C(=O)N[C@@H](CCCN=C(N)N)C(=O)N[C@@H](CCCCN)C(=O)N[C@@H](CCCCN)C(=O)N[C@@H](CC(C)C)C(=O)N[C@@H](CCC(N)=O)C(=O)N[C@@H](CC(=O)O)C(=O)N[C@H](C(=O)N[C@@H](Cc1cnc[nH]1)C(=O)N[C@@H](CC(N)=O)C(=O)N[C@@H](Cc1ccccc1)C(=O)O)C(C)C)C(C)C [LY333334]
percent change in PICP serum levels during treatment ([1]; FIG. 5): reached a peak within about one or two months
percent change in NTX urine levels during treatment ([1]; FIG. 6): increased steadily until about 6 months after treatment initiation and remained at about the same high level at 12 months
BSAP level after termination of PTH treatment [1, 3]: maintained an elevated level
PICP levels after termination of PTH treatment [1, 3]: PICP levels were the same as HRT controls
percent change in NTX levels after termination of PTH treatment [1, 3]: had declined and approached levels similar to those observed in the control group
increase in PICP concentration at 1 month as % of the maximum effect (postmenopausal women; 20 μg dose): 70%
increase in femoral neck BMD as % of the maximum effect (postmenopausal women; 20 μg dose): 56%
increase in spine BMD as % of the maximum effect (postmenopausal women; 20 μg dose): 82%
increase in PICP concentration at 1 month as % of the maximum effect (postmenopausal women; 40 μg dose): 85%
increase in femoral neck BMD as % of the maximum effect (postmenopausal women; 40 μg dose): 67%
increase in spine BMD as % of the maximum effect (postmenopausal women; 40 μg dose): 92%
AUC50, sigmoid Emax model for PICP response (postmenopausal women; PICP): 239 pg·h/mL
AUC50, sigmoid Emax model for femoral neck BMD (postmenopausal women; femoral neck BMD): 283 pg·h/mL
AUC50, sigmoid Emax model for spine BMD (postmenopausal women; spine BMD): 170 pg·h/mL
effect on bone formation as indicated by bone markers (human subjects; 6 μg): no significant effects
undesirable side effects (human subjects; daily dose of about 20 μg vs about 40 μg): fewer undesirable side effects
lowest tested dose effective for stimulation of bone formation, as indicated by bone markers (human subjects; human subjects, daily dose): about 15 μg
actual increase in femoral neck BMD from intent to treat analyses [2]: 2.8%
actual increase in spine BMD from intent to treat analyses [2]: 9.7%
